We go through eleven compounds from US10072034B2, “Kinase inhibitors” (Respivert Limited, priority 2016, dated 2018).

≈ marks a conversion by molar mass, not a printed value. Structures can show the parent of a compound that is named as a salt. Where two headings read alike, the source gives them in different places.

A short description of data set [1]: Solubility in fasted-state simulated colonic fluid (FaSSCoF) at pH 6.5. The format is physicochemical. The following applies: pH 6.5, 25° C.; for solubility thermodynamic at 24 h: fasted-state simulated colonic fluid (FaSSCoF), 25 °C, pH 6.5, fassgf or other biorelevant, thermodynamic from solid. On the procedure: The solubilities of compounds of the invention in FaSSCoF at pH 6.5 are determined using a modification of a previously-reported procedure (Vertzoni, M., et al. Pharm. Res. 2010, 27, 2187-2196). In place of the bile salt extract employed in the original procedure (which extract is no longer available), the modified procedure uses a mixture of sodium taurocholate (0.15 g), glycocholic acid (0.15 g), ursodeoxycholic acid (0.05 g), cholic acid (0.05 g), and glycodeoxycholic acid (0.05 g). These five bile acids are ground together with a mortar and pestle to produce a fine white powder that is incorporated into the FaSSCoF, as outlined below.
FaSSCoF medium: Tris(hydroxymethyl)aminomethane (Tris; 0.275 g) and maleic acid (0.44 g) are dissolved in water (35 mL) to give a solution whose pH is adjusted to 6.5 by treatment with 0.5M NaOH (ca. 12 mL). The solution is then made up to 50 mL with water. A portion of this Tris/maleate buffer solution (ca. 25 mL) is added to a 0.5 L round-bottomed flask, before being treated with 0.00565 g of the bile acid mixture described above. Solutions of phosphatidylcholine (0.0111 g) in DCM (0.15 mL) and palmitic acid (0.0013 g) in DCM (0.15 mL) are added, then the organic solvent is evaporated off under reduced pressure at 40° C. until a clear solution, with no perceptible DCM odour, is achieved. The volume of the evaporated solution is adjusted to 50 mL by addition of the remainder of Tris/maleate buffer, then BSA (0.115 g) is added, before being dissolved by gentle agitation.
Solubility Determination: Test compounds are suspended in the pH 6.5 FaSSCoF medium to give a maximum final concentration of 2-10 mg/mL. The suspensions are equilibrated at 25° C. for 24 h, before being filtered through a glass fibre C filter. The filtrates are then diluted as appropriate for injection and quantification by HPLC with reference to a standard. Different volumes of the standard, diluted and undiluted sample solutions are injected and the solubilities are calculated using the peak areas determined by integration of the peak found at the same retention time as the principal peak in the standard injection.

Another data set concerns IL-8 release in PBMCs. Kind of data set: LPS-induced IL-8 release in PBMC cells (assay (b)). The settings on record: Homo sapiens, LPS-stimulated PBMCs. It is filed as cell-based. The text has this: Peripheral blood mononuclear cells (PBMCs) from healthy subjects are separated from whole blood using a density gradient (Lymphoprep, Axis-Shield Healthcare). […] The supernatant is harvested for determination of IL-8 and TNFα concentrations by sandwich ELISA (Duo-set, R&D systems) and read on the fluorescence microplate reader (Varioskan® Flash, ThermoFisher Scientific).

Where [2] appears, read: Run 1, read-out: pH 6.5 FaSSCoF Solubility Run 1.
Where [3] appears, read: Run 2, read-out: pH 6.5 FaSSCoF Solubility Run 2.

As for `COc1cc(Nc2nccc(Oc3ccc(NC(=O)Nc4cc(C(C)(C)C)cc(NS(C)(=O)=O)c4OC)c4ccccc34)n2)cc(OCCOCCOCCC(=O)O)c1` [Reference Compound A (sodium salt), reference compound], the solubility thermodynamic at 24 h in data set [1] (Run 3, read-out: pH 6.5 FaSSCoF Solubility Run 3) is 30 µg/mL; in data set [1] (Run 4, read-out: pH 6.5 FaSSCoF Solubility Run 4), 30 µg/mL. Besides, in data set [1] (24 h, Run 1), the “pH 6.5 FaSSCoF Solubility Run 1” value is 0.18 mg/mL. The “pH 6.5 FaSSCoF Solubility Run 2” value in data set [1] (24 h, Run 2) is 0.12 mg/mL. For the compound `COc1cc(Nc2cc(Oc3ccc(NC(=O)Nc4cc(C(C)(C)C)on4)c4ccccc34)ccn2)cc(OCCOCCOCC(=O)O)c1` [Example 17, 2-(2-(2-(3-((4-((4-(3-(5-(tert-Butyl)isoxazol-3-yl)ureido)naphthalen-1-yl)oxy)pyridin-2-yl)amino)-5-methoxyphenoxy)ethoxy)ethoxy)acetic acid], the solubility thermodynamic at 24 h was 1700 µg/mL (≈ 2480 µM) in data set [1] (setting [2]) and 1500 µg/mL (≈ 2190 µM) in data set [1] (setting [3]). `COc1cc(Nc2cc(Oc3ccc(NC(=O)Nc4cc(C(C)(C)C)cc(NS(C)(=O)=O)c4OC)c4ccccc34)ccn2)cc(OCCOCCOCC(=O)NS(=O)(=O)N(C)C)c1` [Example 25] returned an IC50 in the data set with IL-8 release in PBMCs of 26.3 nM. In other words, the double-digit nanomolar range.

Compound `COc1cc(Nc2cc(Oc3ccc(NC(=O)Nc4cc(C(C)(C)C)cc(NS(C)(=O)=O)c4OC)c4ccccc34)ccn2)cc(OCCOCc2cc(C(=O)O)co2)c1` [Example 12, 5-((2-(3-((4-((4-(3-(5-(tert-Butyl)-2-methoxy-3-(methylsulfonamido)phenyl)ureido)naphthalen-1 yl)oxy)pyridin-2-yl)amino)-5-methoxyphenoxy)ethoxy)methyl)furan-3-carboxylic acid] gave an IC50 with IL-8 release in PBMCs of 5.6 nM.

`[2H]C([2H])([2H])Oc1c(NC(=O)Nc2ccc(Oc3ccnc(Nc4cc(OC)cc(OCCOCCOCC(=O)O)c4)c3)c3ccccc23)cc(C(C)(C)C)cc1NS(C)(=O)=O` [Example 5, 2-(2-(2-(3-((4-((4-(3-(5-(tert-Butyl)-2-(methoxy-d3)-3-(methylsulfonamido)phenyl)ureido)-naphthalen-1-yl)oxy)pyridin-2-yl)amino)-5-methoxyphenoxy)ethoxy)ethoxy)acetic acid] showed an IC50 in the data set with IL-8 release in PBMCs of 19.5 nM.

`COc1cc(Nc2cc(Oc3ccc(NC(=O)Nc4cc(C(C)(C)C)cc(NS(C)(=O)=O)c4OC)c4ccccc34)ccn2)cc(OCCOCCOCC(=O)NS(C)(=O)=O)c1` [Example 6] showed an IC50 in the data set with IL-8 release in PBMCs of 18.1 nM. On the same count and under the same terms, the value for `COc1cc(Nc2cc(Oc3ccc(NC(=O)Nc4cc(C(C)(C)C)cc(NS(C)(=O)=O)c4OC)c4ccccc34)ccn2)cc(C(=O)NCCOCCOCC(=O)O)c1` [Example 1, 2-(2-(2-(3-((4-((4-(3-(5-(tert-Butyl)-2-methoxy-3-(methylsulfonamido)phenyl)ureido)-naphthalen-1-yl)oxy)pyridin-2-yl)amino)-5-methoxybenzamido)ethoxy)ethoxy)acetic acid, hydrochloride salt] was 115 nM; that for `CCS(=O)(=O)Nc1cc(C(C)(C)C)cc(NC(=O)Nc2ccc(Oc3ccnc(Nc4cc(OC)cc(OCCOCCOCC(=O)O)c4)c3)c3ccccc23)c1OC` [Example 16] was 16.3 nM. Same read-out and setting: then `COc1c(NC(=O)Nc2ccc(Oc3ccnc(Nc4cc(OCCOCCOCC(=O)O)cc(OC(F)F)c4)c3)c3ccccc23)cc(C(C)(C)C)cc1NS(C)(=O)=O` [Example 28], with 20.6 nM.

On to `COc1cc(Nc2cc(Oc3ccc(NC(=O)Nc4cc(C(C)(C)C)cc(NS(C)(=O)=O)c4OC)c4ccccc34)ccn2)cc(OCCOCCOC(C)C(=O)O)c1` (single isomer, unassigned) [20(a)], for which the solubility thermodynamic at 24 h in data set [1] (setting [2]) is 620 µg/mL (≈ 745 µM); in data set [1] (setting [3]), 640 µg/mL (≈ 769 µM). On the same counts, the results for `COc1cc(Nc2cc(Oc3ccc(NC(=O)Nc4cc(C(C)(C)C)cc(NS(C)(=O)=O)c4OC)c4ccccc34)ccn2)cc(OCCOCCOC(C)C(=O)O)c1` (centres unmarked) [Example 14] are 1200 µg/mL (≈ 1440 µM) and 1100 µg/mL (≈ 1320 µM).
